Assays:
megalin [1] = details: relative to gentamicin; cited from earlier work
[2] = patients, nephro- and ototoxic side effects; cited from earlier work
cubilin = molecular target: T1, cubilin (Oryctolagus cuniculus, UniProt U3KLX7); experiment: BIAcore analysis of binding to cubilin; details: for effect of reduction of disulfide-bridges on binding to cubilin: reduced receptor (reducing agent)
T1 construct: Megalin and cubilin purified from rabbit kidney cortex; from tissue

[3] = tested on: cells expressing megalin and cubilin; experiment: Inhibition of cellular accumulation of radiolabeled gentamicin; type: cell-based; details: FIG. 4
megalin [4] = molecular target: T2, megalin (Mus musculus, UniProt A2ARV4); experiment: Uptake of radioactively labelled gentamicin in wildtype and megalin-deficient (knockout) mice; type: in vivo; details: wildtype mice, after 24 hours, radioactively labelled
T2 construct: from tissue; host or cells: kidney of living wildtype mice (in vivo); the knockout mice lack the receptor
Experimental: (§1) Radioactively labelled aminoglycosides (gentamicin) were injected into 26 normal (wildtype) and into 3 megalin-deficient mice (knockout). After 24 hours, the secretion of the aminoglycosides into the urine and their accumulation in the kidneys were determined. In wildtype mice, about 10% of the administered aminoglycosides are accumulated in the kidneys and 40% are secreted into the urine.
(§2) In one embodiment the animal model is a mouse model with an induced megalin gene defect (knockout mouse; Nykjaer, A. et al., Cell 96, 507-515). In these animals, the contribution of megalin and other receptor-mediated or receptor-independent processes to the drug uptake into the kidneys may be tested. The amount of intracellular accumulation of the drug in question as compared to a control having sufficient megalin indicates whether the mechanism of side effects is intracellular accumulation through megalin binding or some other mechanism.

megalin [5] = experiment: as above; type: in vivo, mouse; details: megalin-deficient knockout mice, after 24 hours
Experimental: as §1, §2

megalin [6] = experiment: BIAcore analysis of binding to megalin
mouse kidney = experiment: Inhibition of uptake of radio-labeled gentamicin into mouse kidney; type: in vivo; details: intravenous co-infusion, FIG. 5
Excerpt: FIG. 5: Inhibition of uptake of radio-labeled gentamicin into mouse kidney
The drugs were administrated intravenously. […] This is most likely because infused RAP rapidly is cleared from the circulation by uptake into the liver.

megalin [7] = molecular target: T2, megalin; experiment: Suppression of radioactive gentamicin uptake into the kidneys of wildtype mice by megalin antagonist; type: in vivo; details: co-injection with radioactive gentamicin
Experimental: Two groups of wildtype mice received an injection of radioactive gentamicin. One group was also injected with polymyxin B, a substance that binds with a high affinity to megalin and displaces gentamicin from the receptor. The administration of polymyxin B reduces the uptake of aminoglycosides into the kidneys by more than 60%.

[8] = addition of EDTA (calcium depletion)

T1 sequence (U3KLX7 20-3539): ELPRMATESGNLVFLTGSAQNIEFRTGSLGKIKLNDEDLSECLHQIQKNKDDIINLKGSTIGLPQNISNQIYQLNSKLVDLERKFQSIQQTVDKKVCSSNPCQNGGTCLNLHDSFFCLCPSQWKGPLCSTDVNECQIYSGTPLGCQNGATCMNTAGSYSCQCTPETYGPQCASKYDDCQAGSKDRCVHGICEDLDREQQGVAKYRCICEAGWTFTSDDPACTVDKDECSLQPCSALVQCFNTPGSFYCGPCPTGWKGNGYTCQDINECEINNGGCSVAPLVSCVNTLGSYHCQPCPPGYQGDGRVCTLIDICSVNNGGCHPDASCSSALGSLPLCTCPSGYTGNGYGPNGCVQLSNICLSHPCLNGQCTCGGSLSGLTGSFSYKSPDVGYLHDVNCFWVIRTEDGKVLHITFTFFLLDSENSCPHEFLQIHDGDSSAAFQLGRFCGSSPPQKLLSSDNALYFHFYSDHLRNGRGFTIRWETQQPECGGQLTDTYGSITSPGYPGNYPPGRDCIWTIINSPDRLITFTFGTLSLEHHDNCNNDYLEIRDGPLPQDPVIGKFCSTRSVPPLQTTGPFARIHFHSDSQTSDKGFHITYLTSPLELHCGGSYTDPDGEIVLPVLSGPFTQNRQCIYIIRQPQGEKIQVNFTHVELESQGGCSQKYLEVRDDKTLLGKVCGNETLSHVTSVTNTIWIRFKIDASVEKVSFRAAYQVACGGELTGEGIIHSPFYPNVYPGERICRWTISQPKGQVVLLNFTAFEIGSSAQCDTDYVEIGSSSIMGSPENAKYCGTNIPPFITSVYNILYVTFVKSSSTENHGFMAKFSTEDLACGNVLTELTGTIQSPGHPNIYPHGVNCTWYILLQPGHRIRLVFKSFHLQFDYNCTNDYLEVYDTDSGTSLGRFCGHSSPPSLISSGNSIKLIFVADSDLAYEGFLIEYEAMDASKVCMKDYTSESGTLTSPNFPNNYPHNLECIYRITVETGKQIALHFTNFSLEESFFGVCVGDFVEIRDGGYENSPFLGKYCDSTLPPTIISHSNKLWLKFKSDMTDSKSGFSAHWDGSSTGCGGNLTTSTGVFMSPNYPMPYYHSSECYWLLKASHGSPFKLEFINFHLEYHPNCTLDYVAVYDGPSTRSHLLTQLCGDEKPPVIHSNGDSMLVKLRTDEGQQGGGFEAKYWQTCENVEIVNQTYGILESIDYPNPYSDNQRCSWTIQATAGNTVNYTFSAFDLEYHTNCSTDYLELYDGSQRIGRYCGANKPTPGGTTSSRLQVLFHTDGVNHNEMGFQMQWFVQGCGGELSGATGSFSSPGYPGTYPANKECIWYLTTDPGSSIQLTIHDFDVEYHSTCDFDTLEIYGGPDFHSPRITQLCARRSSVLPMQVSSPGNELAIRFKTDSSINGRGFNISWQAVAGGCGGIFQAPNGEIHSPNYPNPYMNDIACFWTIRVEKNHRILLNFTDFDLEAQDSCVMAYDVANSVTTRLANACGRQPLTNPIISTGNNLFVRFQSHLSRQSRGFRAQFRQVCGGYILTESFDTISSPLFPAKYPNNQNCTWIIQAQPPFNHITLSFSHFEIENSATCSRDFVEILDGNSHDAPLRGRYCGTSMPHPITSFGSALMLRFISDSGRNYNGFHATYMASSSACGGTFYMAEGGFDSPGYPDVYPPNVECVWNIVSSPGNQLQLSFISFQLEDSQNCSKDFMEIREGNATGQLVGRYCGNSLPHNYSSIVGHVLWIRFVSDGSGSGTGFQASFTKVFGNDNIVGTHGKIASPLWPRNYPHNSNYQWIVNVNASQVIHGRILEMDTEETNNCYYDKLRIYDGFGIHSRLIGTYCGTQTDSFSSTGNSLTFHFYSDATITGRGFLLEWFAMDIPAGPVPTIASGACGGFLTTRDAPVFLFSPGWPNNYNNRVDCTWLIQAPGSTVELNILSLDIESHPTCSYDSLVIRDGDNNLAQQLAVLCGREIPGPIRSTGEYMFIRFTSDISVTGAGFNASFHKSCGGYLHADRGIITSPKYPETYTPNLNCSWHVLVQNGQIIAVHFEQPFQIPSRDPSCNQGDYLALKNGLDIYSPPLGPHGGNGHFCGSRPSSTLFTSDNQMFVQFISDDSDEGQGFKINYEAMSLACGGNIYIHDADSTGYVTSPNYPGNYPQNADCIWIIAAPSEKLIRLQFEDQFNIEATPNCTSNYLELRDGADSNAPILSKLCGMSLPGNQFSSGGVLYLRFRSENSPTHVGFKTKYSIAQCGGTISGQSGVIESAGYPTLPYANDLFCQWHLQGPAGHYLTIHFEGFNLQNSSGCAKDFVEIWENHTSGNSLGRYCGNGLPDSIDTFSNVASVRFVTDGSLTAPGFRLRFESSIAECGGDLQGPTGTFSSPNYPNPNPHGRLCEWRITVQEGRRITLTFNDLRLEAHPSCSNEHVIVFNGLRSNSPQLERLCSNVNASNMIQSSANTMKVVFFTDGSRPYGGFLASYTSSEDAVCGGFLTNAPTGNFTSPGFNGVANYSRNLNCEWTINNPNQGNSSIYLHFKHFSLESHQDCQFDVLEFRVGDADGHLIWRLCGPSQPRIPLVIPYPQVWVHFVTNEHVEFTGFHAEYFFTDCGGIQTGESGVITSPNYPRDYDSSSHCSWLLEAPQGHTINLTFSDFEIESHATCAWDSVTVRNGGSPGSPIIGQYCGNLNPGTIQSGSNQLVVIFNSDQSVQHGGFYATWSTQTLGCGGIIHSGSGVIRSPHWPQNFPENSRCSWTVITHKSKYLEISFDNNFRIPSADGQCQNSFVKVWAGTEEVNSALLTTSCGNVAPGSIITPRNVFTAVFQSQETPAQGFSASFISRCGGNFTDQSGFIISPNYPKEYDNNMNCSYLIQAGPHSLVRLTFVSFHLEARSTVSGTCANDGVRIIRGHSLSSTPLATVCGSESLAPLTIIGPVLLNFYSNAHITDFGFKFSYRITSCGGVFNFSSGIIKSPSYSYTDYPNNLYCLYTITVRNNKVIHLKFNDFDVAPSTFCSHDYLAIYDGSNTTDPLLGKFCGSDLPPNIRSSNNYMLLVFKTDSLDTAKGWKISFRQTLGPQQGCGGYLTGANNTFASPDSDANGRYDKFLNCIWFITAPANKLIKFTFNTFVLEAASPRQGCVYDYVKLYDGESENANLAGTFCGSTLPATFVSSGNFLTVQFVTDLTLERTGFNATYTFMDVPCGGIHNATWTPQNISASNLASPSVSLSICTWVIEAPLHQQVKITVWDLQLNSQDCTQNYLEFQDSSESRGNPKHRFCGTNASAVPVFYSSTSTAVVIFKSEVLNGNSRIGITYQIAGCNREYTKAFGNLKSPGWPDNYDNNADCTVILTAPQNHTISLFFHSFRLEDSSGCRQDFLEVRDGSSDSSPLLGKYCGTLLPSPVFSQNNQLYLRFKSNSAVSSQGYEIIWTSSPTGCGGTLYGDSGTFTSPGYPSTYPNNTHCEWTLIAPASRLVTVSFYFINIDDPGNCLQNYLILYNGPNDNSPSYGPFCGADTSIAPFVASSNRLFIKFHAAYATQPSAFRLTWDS

NCC[C@H](O)C(=O)N[C@@H]1C[C@H](N)[C@@H](O[C@H]2O[C@H](CN)[C@@H](O)[C@H](O)[C@H]2O)[C@H](O)[C@H]1O[C@H]1O[C@H](CO)[C@@H](O)[C@H](N)[C@H]1O [amikacin]
poorer binding than gentamicin to megalin (megalin [1]): about 5 times
rate of toxicity [2]: 1-4%

RAP: receptor-associated protein, a cellular protein comprising about 300 amino acids, known to bind to megalin
effect of reduction of disulfide-bridges on binding to cubilin (cubilin): significantly inhibited
inhibition of cellular accumulation of radiolabeled gentamicin [3]: able to inhibit at least partly

aprotinin
inhibition of cellular accumulation of radiolabeled gentamicin [3]: inhibit gentamioin uptake

gentamicin
accumulation of administered aminoglycoside in the kidneys (megalin [4]): about 10%
secretion of administered aminoglycoside into the urine (megalin [4]): 40%
accumulation of aminoglycoside in the kidneys (megalin [5]): no accumulation
secretion of antibiotic into the urine (megalin [5]): 40%
binding to megalin (megalin [6]; BIAcore, FIG. 3 panel A): direct binding
effect of EDTA on binding to megalin (megalin [6]; [8]): does not abolish binding
effect of reduction of disulfide-bridges on binding to megalin (megalin [6]; reduced receptor): does not significantly interefere with ligand binding
binding to cubilin (cubilin; BIAcore, FIG. 3 panel B): direct binding
effect of EDTA on binding to cubilin (cubilin; [8]): does not abolish binding
effect of reduction of disulfide-bridges on binding to cubilin (cubilin): does not significantly interefere with ligand binding
inhibition of uptake of radio-labeled gentamicin into mouse kidney (mouse kidney): can be inhibited

poly-L-aspartate
inhibition of cellular accumulation of radiolabeled gentamicin [3]: not

poly-L-lysine
inhibition of cellular accumulation of radiolabeled gentamicin [3]: can be inhibited
inhibition of uptake of radio-labeled gentamicin into mouse kidney (mouse kidney): can be inhibited

polymyxin B
reduction of uptake of aminoglycosides into the kidneys (megalin [7]): more than 60%
inhibition of cellular accumulation of radiolabeled gentamicin [3]: inhibit gentamioin uptake
inhibition of uptake of radio-labeled gentamicin into mouse kidney (mouse kidney): can be inhibited

From patent publication US7345018B2, “Method of treating side effects induced by therapeutic agents” (Reception ApS, priority 2002, dated 2008)
